What was measured:
Acetylcholinesterase = Acetylcholinesterase (Tetronarce californica, UniProt P04058); assay: Enzyme Inhibition Assay; settings: 30 °C
Experimental: (§1) AChE and BChE inhibitory activities were measured in vitro by a modified spectrophotometric method. all the inhibition studies were performed using a Spectra Max microplate spectrophotometer from Molecular Devices, CA, USA.

[1] = molecular target: Carboxylic ester hydrolase (Equus caballus, UniProt Q9N1N9); assay: Enzyme Inhibition Assay; settings: 30 °C
Carboxylic ester hydrolase, sequence (Q9N1N9 whole entry): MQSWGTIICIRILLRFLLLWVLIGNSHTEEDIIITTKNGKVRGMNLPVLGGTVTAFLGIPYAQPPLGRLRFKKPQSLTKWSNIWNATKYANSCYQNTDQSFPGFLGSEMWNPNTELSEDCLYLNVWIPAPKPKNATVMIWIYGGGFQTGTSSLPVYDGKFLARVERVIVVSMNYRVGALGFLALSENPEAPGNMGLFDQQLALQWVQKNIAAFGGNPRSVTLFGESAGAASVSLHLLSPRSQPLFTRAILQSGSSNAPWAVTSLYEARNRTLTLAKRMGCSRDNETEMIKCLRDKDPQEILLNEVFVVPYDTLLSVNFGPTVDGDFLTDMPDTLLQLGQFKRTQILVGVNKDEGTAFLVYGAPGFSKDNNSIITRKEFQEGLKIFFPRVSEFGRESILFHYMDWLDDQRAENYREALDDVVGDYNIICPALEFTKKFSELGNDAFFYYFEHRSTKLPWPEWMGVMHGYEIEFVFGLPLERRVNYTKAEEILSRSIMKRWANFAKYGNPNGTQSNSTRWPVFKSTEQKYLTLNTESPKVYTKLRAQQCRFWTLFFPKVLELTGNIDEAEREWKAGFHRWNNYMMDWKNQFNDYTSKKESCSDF
Experimental: as §1

Acetylcholinesterase, sequence (P04058 whole entry): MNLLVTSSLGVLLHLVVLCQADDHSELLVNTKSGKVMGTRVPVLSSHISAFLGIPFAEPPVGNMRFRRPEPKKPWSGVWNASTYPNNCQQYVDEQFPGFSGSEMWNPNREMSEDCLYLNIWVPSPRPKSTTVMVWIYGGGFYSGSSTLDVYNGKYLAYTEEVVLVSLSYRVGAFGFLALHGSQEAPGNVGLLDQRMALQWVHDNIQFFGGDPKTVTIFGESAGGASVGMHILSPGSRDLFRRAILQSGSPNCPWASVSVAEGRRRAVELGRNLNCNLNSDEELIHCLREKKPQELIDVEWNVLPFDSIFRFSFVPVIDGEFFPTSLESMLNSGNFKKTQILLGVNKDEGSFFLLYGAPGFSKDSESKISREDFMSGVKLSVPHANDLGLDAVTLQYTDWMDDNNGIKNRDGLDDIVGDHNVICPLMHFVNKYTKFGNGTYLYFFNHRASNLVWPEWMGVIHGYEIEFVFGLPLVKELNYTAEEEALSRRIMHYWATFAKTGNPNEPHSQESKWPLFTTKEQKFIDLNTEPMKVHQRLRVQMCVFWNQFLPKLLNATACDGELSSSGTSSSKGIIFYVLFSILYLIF

| Compound | Ki (Acetylcholinesterase) [µM] | Ki [1] [µM] |
| --- | --- | --- |
| COC(C)(C)[C@H]1Cc2c(n(C)c3ccccc3c2=O)O1 [Methyl isoplatydesmine, 4] | 30 | 19 |
| Cn1c2c(c(=O)c3ccccc31)C[C@@H](O)C(C)(C)O2 [Ribalinine, 3] | 30 | 70 |
| COc1ccc2c3c1O[C@H]1C[C@@H](O)C=C[C@@]31CCN(C)C2 [galantamine] |  | 32 |
